Measurements from PMC8748767 (Nature Communications, 2022).
Where “and” joins values, the source holds several entries; their conditions need not be identical. Equal entries are not always repeated. Where two headings read alike, the source gives them in different places.

Key:
[1] = biological target: THNΔ35 (human TH with the first 35 residues deleted) (Homo sapiens, UniProt P07101); assay: Assay of TH activity and inhibition by DA, deletion mutant THNΔ35; format: biochemical
Protocol: (§1) The activity of purified TH and truncated forms was assayed at 37 °C[7]. The purified enzymes were kept on ice and diluted with 0.5% (w/v) bovine serum albumin in 20 mM Na-Hepes pH 7, 200 mM NaCl and centrifuged at 10,000 × g for 5 min at 4 °C. […] TH was added to a final concentration of 1 µg/ml (17 nM subunit) and preincubated at 37 °C for 1 min. […] Protein was removed by precipitation at −20 °C for 90 min followed by centrifugation at 20,000 × g for 14 min at 4 °C. The amount of L-Dopa in the supernatant was determined using a 1200 series high performance liquid chromatography (HPLC) system (Agilent technologies). The chromatographic separation was obtained using an Agilent Zorbax 300-SCX column with 20 mM HAc pH 3.5, 2% (v/v) propanol as mobile phase at a flow rate of 3 ml/min. The fluorescence detector was set to λex = 280 nm and λem = 314 nm.
(§2) Statistical analyses were performed with Graphpad Prism software version 8.3.0. For SRCD, DSC and TH activity measurements, three enzyme samples from independent protein purifications were measured and the mean ± SD (standard deviation) was calculated. The homogeneity of variances was confirmed by Brown-Forsythe tests and multiple comparisons were made using one-way analysis of variance (ANOVA) followed by a post hoc HSD Tukey test. […] The individual curves were fitted to a four-parameter logistic curve by the [Inhibitor] vs. response—Variable slope equation (y = min + ((max − min)/(1 + IC50/X)^Hill Slope) in Graphpad and the mean IC50 ± SD reported.

[2] = biological target: T1, THNΔ43 (Homo sapiens, UniProt P07101); assay: Differential scanning calorimetry (DSC), thermal stability with DA, THNΔ43; format: binding
T1 construct: His-MBP (TEV site) (N, cleaved yes); made in house
Protocol: (§3) In all experiments, 9 μM TH in 20 mM Na-Hepes pH 7, 200 mM NaCl was used, with the same buffer as reference, heating from 25 to 75 °C at a scan rate of 200 °C/h.

[3] = biological target: T2, THNΔ35 (Homo sapiens, UniProt P07101); assay: Differential scanning calorimetry (DSC), thermal stability with DA, THNΔ35; format: binding
T2 construct: His-MBP (TEV site) (N, cleaved yes); made in house
Protocol: as §3

[4] = biological target: THS40p (S40 phosphorylated human TH) (Homo sapiens, UniProt P07101); assay: biochemical
Protocol: TH was phosphorylated on S40 (control without kinase)[3], using the catalytic subunit of cAMP-dependent protein kinase (CatPKA, kind gift from S.O. Døskeland[64]). TH (4 mg/ml) was assayed in 50 mM Na-β-glycerophosphate pH 7.5, 1 mM DTT, 0.1 mM EGTA, 1x protease inhibitor cocktail (without EDTA, Pierce), 0.5 mM ATP, 5 mM MgCl2 and incubated with the catalytic subunit of CatPKA (200 nM, diluted from 20 µM in 60% glycerol, 0.5 mg/ml soya bean trypsin inhibitor) for 30 min at 25 °C. […] After phosphorylation, H89 (Sigma) (5 µM) was added and the samples were exchanged into 20 mM Hepes pH 7.0, 200 mM NaCl.
as §1
Statistical analyses were performed with Graphpad Prism software version 8.3.0. For SRCD, DSC and TH activity measurements, three enzyme samples from independent protein purifications were measured and the mean ± SD (standard deviation) was calculated. The homogeneity of variances was confirmed by Brown-Forsythe tests and multiple comparisons were made using one-way analysis of variance (ANOVA) followed by a post hoc HSD Tukey test. […]

[5] = biological target: T3, full-length human TH (TH1) (Homo sapiens, UniProt P07101); assay: Differential scanning calorimetry (DSC), thermal stability with DA, TH; format: binding
Protocol: as §3

[6] = biological target: THNΔ70 (human TH with the entire N-terminal removed) (Homo sapiens, UniProt P07101); assay: Assay of TH activity and inhibition by DA, deletion mutant THNΔ70; format: biochemical
Protocol: as §1, §2

[7] = biological target: T4, THNΔ70 (Homo sapiens, UniProt P07101); assay: Differential scanning calorimetry (DSC), thermal stability with DA, THNΔ70; format: binding
T4 construct: His-MBP (TEV site) (N, cleaved yes); made in house
Protocol: as §3

[8] = biological target: TH, THNΔ35, THNΔ43, THNΔ70, THS40p (Homo sapiens, UniProt P07101); details: far-UV SRCD, two-fold molar ratio of DA
Protocol: SRCD spectra were collected as from 280 to 170 nm (3 scans averaged) at 25 °C on the AU-UV beamline at ASTRID2, part of the Institute for Storage Rings (ISA) facility at the University of Aarhus, Denmark. […] The path length of the cell was confirmed using an interferometry method and found to be 100.1 µm. The protein concentration was measured using Abs280nm prior to the measurements and more accurately by A205nm from the absorption spectra measured simultaneously with the CD spectra, using the respective theoretical extinction coefficients[65]. The A205nm measurements were used in the conversion of raw CD units to ∆ε(M^−1cm^−1) values. Secondary structure content was determined in the 250–180 nm range using the BeStSel algorithm[66].

[9] = biological target: T3, full-length human TH (TH1); assay: biochemical; details: for IC50: mean ± SD, n = 3, 37 °C, 50 µM L-Tyr, 200 µM BH4
Protocol: as §1, §2

[10] = biological target: THNΔ43 (human TH lacking the N-terminal 43 residues) (Homo sapiens, UniProt P07101); assay: Assay of TH activity and inhibition by DA, deletion mutant THNΔ43; format: biochemical
Protocol: as §1, §2

[11] = individual samples (source data Sup Table 9)

T4 sequence (P07101 102-528 limits assumed, stated change not applied): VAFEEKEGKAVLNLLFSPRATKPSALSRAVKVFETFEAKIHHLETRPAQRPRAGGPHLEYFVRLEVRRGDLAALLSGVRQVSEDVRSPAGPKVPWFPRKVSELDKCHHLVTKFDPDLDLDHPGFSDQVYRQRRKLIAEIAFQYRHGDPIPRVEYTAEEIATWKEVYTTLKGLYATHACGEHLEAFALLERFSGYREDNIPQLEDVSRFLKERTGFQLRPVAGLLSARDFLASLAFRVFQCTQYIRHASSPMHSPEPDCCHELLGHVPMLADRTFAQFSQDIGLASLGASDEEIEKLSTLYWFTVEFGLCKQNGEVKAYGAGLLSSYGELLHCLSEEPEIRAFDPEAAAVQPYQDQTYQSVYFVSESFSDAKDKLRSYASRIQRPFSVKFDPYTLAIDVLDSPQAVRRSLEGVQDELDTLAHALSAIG
Sequence of THNΔ70 (human TH with the entire N-terminal removed) (P07101 102-528 limits assumed, stated change not applied): as above
Sequence of THNΔ43 (human TH lacking the N-terminal 43 residues) (P07101 75-528 limits assumed, stated change not applied): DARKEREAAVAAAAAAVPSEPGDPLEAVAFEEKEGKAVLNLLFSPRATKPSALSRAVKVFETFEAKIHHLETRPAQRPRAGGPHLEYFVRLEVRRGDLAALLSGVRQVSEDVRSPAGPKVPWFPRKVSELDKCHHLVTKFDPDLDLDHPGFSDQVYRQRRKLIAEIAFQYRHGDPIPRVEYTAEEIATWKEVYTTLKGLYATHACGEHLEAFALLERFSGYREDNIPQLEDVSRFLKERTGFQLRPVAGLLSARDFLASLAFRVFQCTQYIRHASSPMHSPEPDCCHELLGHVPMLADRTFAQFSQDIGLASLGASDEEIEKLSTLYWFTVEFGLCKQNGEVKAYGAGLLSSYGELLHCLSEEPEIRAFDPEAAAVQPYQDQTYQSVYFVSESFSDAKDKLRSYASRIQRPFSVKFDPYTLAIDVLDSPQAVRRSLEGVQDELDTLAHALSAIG
T1 sequence (P07101 75-528 limits assumed, stated change not applied): as above
T3 sequence (P07101 1-497 isoform P07101-3): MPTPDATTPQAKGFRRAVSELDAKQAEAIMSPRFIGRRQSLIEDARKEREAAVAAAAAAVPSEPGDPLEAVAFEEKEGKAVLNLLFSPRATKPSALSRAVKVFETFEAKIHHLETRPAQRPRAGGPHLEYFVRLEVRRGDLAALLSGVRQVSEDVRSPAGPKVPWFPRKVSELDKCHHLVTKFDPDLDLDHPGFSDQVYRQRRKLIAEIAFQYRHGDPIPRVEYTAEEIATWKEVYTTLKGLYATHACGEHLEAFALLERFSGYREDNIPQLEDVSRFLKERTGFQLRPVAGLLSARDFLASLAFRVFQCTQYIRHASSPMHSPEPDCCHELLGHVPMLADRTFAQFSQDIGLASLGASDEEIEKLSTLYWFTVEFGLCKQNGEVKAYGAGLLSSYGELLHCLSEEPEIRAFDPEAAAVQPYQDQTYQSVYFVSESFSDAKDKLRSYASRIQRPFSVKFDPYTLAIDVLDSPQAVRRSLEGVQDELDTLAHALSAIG
Sequence of THS40p (S40 phosphorylated human TH) (P07101 1-497 isoform P07101-3): as above
T2 sequence (P07101 67-528 limits assumed, stated change not applied): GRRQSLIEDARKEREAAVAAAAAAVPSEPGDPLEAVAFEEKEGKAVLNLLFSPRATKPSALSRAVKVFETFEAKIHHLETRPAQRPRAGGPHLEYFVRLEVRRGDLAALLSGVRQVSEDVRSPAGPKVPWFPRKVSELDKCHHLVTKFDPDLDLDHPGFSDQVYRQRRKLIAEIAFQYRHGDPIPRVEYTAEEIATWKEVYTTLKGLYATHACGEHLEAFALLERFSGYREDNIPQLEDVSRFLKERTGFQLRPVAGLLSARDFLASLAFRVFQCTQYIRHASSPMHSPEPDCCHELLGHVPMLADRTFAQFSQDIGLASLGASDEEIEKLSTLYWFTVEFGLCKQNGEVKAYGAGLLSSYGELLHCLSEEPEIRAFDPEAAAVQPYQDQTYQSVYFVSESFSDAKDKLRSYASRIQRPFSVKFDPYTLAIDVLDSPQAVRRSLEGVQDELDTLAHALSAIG
Sequence of THNΔ35 (human TH with the first 35 residues deleted) (P07101 67-528 limits assumed, stated change not applied): as above
Sequence of TH, THNΔ35, THNΔ43, THNΔ70, THS40p (P07101 1-497 isoform P07101-3): as the sequence (P07101 1-497 isoform P07101-3) above

NCCc1ccc(O)c(O)c1 [DA, dopamine]
IC50 ([1]; THNΔ35, mean ± SD, n = 3, 37 °C, 50 µM L-Tyr, 200 µM BH4): 0.22 ± 0.02 µM | remaining activity at 0.05 µM ([1]; read-out: Relative TH activity, THNΔ35, 0.05 µM dopamine, relative to mean activity with 0 µM DA, replicates): 89.3% | remaining activity at 0.1 µM ([1]; read-out: Relative TH activity, THNΔ35, 0.10 µM dopamine, relative to mean activity with 0 µM DA, replicates): 73.8% | remaining activity at 0.2 µM ([1]; read-out: Relative TH activity, THNΔ35, 0.20 µM dopamine, relative to mean activity with 0 µM DA, replicates): 56.1% | remaining activity at 0.78 µM ([1]; read-out: Relative TH activity, THNΔ35, […] µM dopamine, relative to mean activity with 0 µM DA, replicates): 29.7% | remaining activity at 6.25 µM ([1]; read-out: Relative TH activity, THNΔ35, 6.25 µM dopamine, relative to mean activity with 0 µM DA, replicates): 8.14% | remaining activity at 25 µM ([1]; read-out: Relative TH activity, THNΔ35, […] dopamine, relative to mean activity with 0 µM DA, replicates): 3.12% | Tonset with DA ([2]; THNΔ43 + two-fold molar ratio of DA, mean ± SD, without DA 43.3 ± 0.9): 43.5 ± 0.5 °C | Tmax with DA ([2]; THNΔ43 + two-fold molar ratio of DA, mean ± SD, without DA 54.3 ± 1.7): 56.5 ± 0.4 °C | T max, THNΔ43+DA [2, 11]: 56.94 °C and 56.71 °C and 56.44 °C and 56.11 °C | T onset, THNΔ43+DA [2, 11]: 43.98 °C and 42.91 °C and 43.13 °C and 43.87 °C and 43.53 °C | Tonset with DA ([3]; THNΔ35 + two-fold molar ratio of DA, mean ± SD, without DA 37.5 ± 1.2): 39.6 ± 0.3 °C | Tmax with DA ([3]; THNΔ35 + two-fold molar ratio of DA, mean ± SD, without DA 51.7 ± 0.7): 54.9 ± 1.0 °C | T max, THNΔ35+DA [3, 11]: 56.43 °C and 54.75 °C and 54.43 °C and 54.1 °C | T onset, THNΔ35+DA [3, 11]: 39.27 °C and 39.93 °C and 39.71 °C and 39.61 °C | remaining activity at 1000 µM ([4]; 5 min, read-out: Relative TH activity, THS40p, 1000.00 µM dopamine, relative to mean activity with 0 µM DA, replicates): 0% | IC50 ([4]; Dopamine IC50, THS40p, source data Fig 5f, SEM in a column of its own): 12.4 µM | IC50 ([4]; THS40p, mean ± SD, n = 3, 37 °C, 50 µM L-Tyr, 200 µM BH4, read-out: IC50 for DA inhibition of TH activity): 12.4 ± 2.3 µM | Tonset with DA ([5]; TH + two-fold molar ratio of DA, mean ± SD, without DA 43.3 ± 0.2): 45.2 ± 0.6 °C | Tmax with DA ([5]; TH + two-fold molar ratio of DA, mean ± SD, without DA 54.9 ± 0.4): 58.6 ± 0.6 °C | T max, TH+DA [5, 11]: 59.32 °C and 58.94 °C and 58.11 °C and 58.01 °C | T onset, TH+DA [5, 11]: 45.07 °C and 45.48 °C and 44.42 °C and 45.76 °C | IC50 ([6]; THNΔ70, mean ± SD, n = 3, 37 °C, 50 µM L-Tyr, 200 µM BH4): 19.4 ± 5.6 µM | remaining activity at 0.2 µM ([6]; read-out: Relative TH activity, THNΔ70, 0.20 µM dopamine, relative to mean activity with 0 µM DA, replicates): 113% | remaining activity at 12.58 µM ([6]; read-out: Relative TH activity, THNΔ70, […] µM dopamine, relative to mean activity with 0 µM DA, replicates): 74.6% | remaining activity at 50.31 µM ([6]; read-out: Relative TH activity, THNΔ70, 50.31 µM dopamine, relative to mean activity with 0 µM DA, replicates): 35.7% | remaining activity at 201.25 µM ([6]; read-out: Relative TH activity, THNΔ70, 201.25 µM dopamine, relative to mean activity with 0 µM DA, replicates): 13.3% | Tonset with DA ([7]; THNΔ70 + two-fold molar ratio of DA, mean ± SD, without DA 45.0 ± 0.5): 45.6 ± 0.6 °C | Tmax with DA ([7]; THNΔ70 + two-fold molar ratio of DA, mean ± SD, without DA 56.0 ± 0.1): 56.4 ± 0.2 °C | T max, THNΔ70+DA [7, 11]: 56.38 °C and 56.21 °C and 56.6 °C | T onset, THNΔ70+DA [7, 11]: 45.36 °C and 45.19 °C and 46.36 °C | Effect of incubation with DA on secondary structure (helix content) of TH [8]: no increase in helix content | IC50 ([9]; IC50 for DA inhibition of TH activity): 0.49 ± 0.04 µM | IC50 ([9]; read-out: IC50 for DA inhibition of TH activity): ~0.5 µM | remaining activity at 0.08 µM ([9]; read-out: Relative TH activity, TH, 0.08 µM dopamine, relative to mean activity with 0 µM DA, replicates): 102% | remaining activity at 0.63 µM ([9]; read-out: Relative TH activity, TH, 0.63 µM dopamine, relative to mean activity with 0 µM DA, replicates): 48.2% | remaining activity at 5 µM ([9]; read-out: Relative TH activity, TH, 5.00 µM dopamine, relative to mean activity with 0 µM DA, replicates): 10% | remaining activity at 10 µM ([9]; read-out: Relative TH activity, TH, 10.00 µM dopamine, relative to mean activity with 0 µM DA, replicates): 6.24% | IC50 ([10]; THNΔ43, mean ± SD, n = 3, 37 °C, 50 µM L-Tyr, 200 µM BH4): 18.1 ± 1 µM | remaining activity at 0.2 µM ([10]; read-out: Relative TH activity, THNΔ43, 0.20 µM dopamine, relative to mean activity with 0 µM DA, replicates): 105% | remaining activity at 6.25 µM ([10]; read-out: Relative TH activity, THNΔ43, 6.25 µM dopamine, relative to mean activity with 0 µM DA, replicates): 73.9% | remaining activity at 12.49 µM ([10]; read-out: Relative TH activity, THNΔ43, […] µM dopamine, relative to mean activity with 0 µM DA, replicates): 59.8% | remaining activity at 24.98 µM ([10]; read-out: Relative TH activity, THNΔ43, 24.98 µM dopamine, relative to mean activity with 0 µM DA, replicates): 43.9% | remaining activity at 49.97 µM ([10]; read-out: Relative TH activity, THNΔ43, 49.97 µM dopamine, relative to mean activity with 0 µM DA, replicates): 28.7% | remaining activity at 199.88 µM ([10]; read-out: Relative TH activity, THNΔ43, 199.88 µM dopamine, relative to mean activity with 0 µM DA, replicates): 11.8%
